# How the values were obtained:
# [1] = tested on: 4D5Flu Rip-3 (anti-fluorescein scFv); experiment: dose-dependent rescue of fluorescein quenching; assay type: binding, synthetic construct
# [2] = tested on: 8B10 scFv Rip-3 (anti-MPTS); experiment: MPTS fluorescence quenching, protein titration; assay type: binding
EC50 [1],EC50 [2],SMILES
16 µM,,"c1ccc(COc2ccc3cn[nH]c3c2)cc1 [Stitch-3, 6-(benzyloxy)indazole]"
,1000 nM,"COc1cc(S(=O)(=O)O)c2ccc3c(S(=O)(=O)O)cc(S(=O)(=O)O)c4ccc1c2c43 [MPTS, 8-methoxypyrene-1,3,6-trisulfonic acid]"

# — PMC7099597 (ACS Central Science, 2020)
